What all share (assay type): cell-based
For assay [1], the system named is C38 murine colon solid tumor cell line. Description: Disk diffusion soft agar colony formation assay. The settings on record: 200 zone units = 6 MM. On the procedure: (§1) The method of performing the disk diffusion soft agar colony […] assay is described in Chapter 3 of Cytotoxic Anticancer Drugs: Models and Concepts for Drug Discovery and Development (Frederick A. Valeriote, et al., eds., 1990). In addition to the procedure taught in this reference, one mL ethanol was added to each dry factor in a vial, and the desired concentration of solution was placed on a paper disk. The disk was dried and then placed on soft agar plates as described in the reference.
C38 = murine colon solid tumor cell line
(§2) ^2 Measurement in zone units; 200 zone units = 6 MM
On the technique in general: Agar diffusion results depend on both activity and mobility in agar.

The test system of assay [2] is Candida albicans. Nature of the assay: In vitro antifungal activity, Sabouraud's and Dextrose broth. The note with it: Table 6. From the text:
(§3) In those tables, a dash or "N.T." means the material was not tested.

Assay [3] has as its system Trichophyton mentagrophytes. The description is as above. The note with it: Table 6.
Excerpt: as §3

Assay [4] concerns Aspergillus fumigatus. The description is as above. The settings on record: Table 6.
Excerpt: as §3

In assay [5] the test system is LML "Low Malignancy Line" fibroblast. Description: Disk diffusion soft agar colony formation assay. The settings on record: 200 zone units = 6 MM. How it is done:
as §1
LML = "Low Malignancy Line" fibroblast
as §2

Assay [6] concerns Mam17 murine mammary solid tumor cell line. Nature of the assay: Disk diffusion soft agar colony formation assay. The settings on record: factor line, no dose given, 200 zone units = 6 MM. On the procedure: as §1
Mam17 = murine mammary solid tumor cell line
as §2

For assay [7], the system named is Candida albicans. Nature of the assay: In vitro antifungal activity, RPMI and 10% fetal calf serum broth. The note with it: Table 5, RPMI and 10% Fetal Calf Serum Broth.
Excerpt: as §3

Assay [8] concerns Trichophyton mentagrophytes. Described as above. The settings on record: Table 5, RPMI and 10% Fetal Calf Serum Broth.
Excerpt: as §3

The subject of assay [9] is Aspergillus fumigatus. The description is as above. The note with it: Table 5.
Excerpt: as §3

The test system of assay [10] is P03 murine pancreatic solid tumor cell line. Nature of the assay: Disk diffusion soft agar colony formation assay. The settings on record: 200 zone units = 6 MM. How it is done: as §1
P03 = murine pancreatic solid tumor cell line
as §2

In assay [11] the test system is Candida albicans. Description: In vitro antifungal activity, Antibiotic 3 broth (Difco). The note with it: Table 7.
Excerpt: as §3

The test system of assay [12] is Trichophyton mentagrophytes. Described as above. The settings on record: Table 7.
Excerpt: as §3

Assay [13] concerns Aspergillus fumigatus. The assay is described as above. The settings on record: Table 7.
Excerpt: as §3

Assay [14] concerns H8 human colon solid tumor cell line. Nature of the assay: Disk diffusion soft agar colony formation assay. The settings on record: 200 zone units = 6 MM. On the procedure:
as §1
H8 = human colon solid tumor cell line
as §2

The test system of assay [15] is L1210 murine leukemia cell line. Nature of the assay: Disk diffusion soft agar colony formation assay. The note with it: 200 zone units = 6 MM. On the procedure:
as §1
L1210 = murine leukemia cell line
as §2

Setting [16] is: unlabelled line below the (80 ug) line.

From US5457119A, “A89271 factors and processes for their production” (priority 1994, dated 1995) come the findings set out here.

SMILES strings stand for the structures. ≈ marks a conversion by molar mass, not a printed value.

One may read the MIC as the least concentration at which growth counts as inhibited. Turning to `[C-]#[N+]C1C(C)(C=C)CCC2C(C)(C)c3cccc4[nH]c(C(C)(C)C=C)c(c34)C12O` (centres unmarked) [A89271 E], the “Measurement in zone units” value is 300-360 zone units in assay [1] (20 ug per disk); 300 zone units in assay [1] (factor line, no dose given); 480-500 zone units in [1] (setting [16]); 80 zone units in assay [5] (20 ug per disk); 100-180 zone units in assay [5] (80 ug per disk); 350 zone units in assay [6]. Further, the “Measurement in zone units” value is listed as 440-500 zone units in [10] (80 ug per disk); 460 zone units in assay [10] (setting [16]); 100-180 zone units in assay [14] (20 ug per disk); 220-240 zone units in assay [14] (80 ug per disk); 100-200 zone units in [15] (20 ug per disk); 250-300 zone units in assay [15] (80 ug per disk). Moreover, the “Measurement in zone units” value in assay [15] (factor line, no dose given) was 280 zone units; in assay [15] (setting [16]), 200-220 zone units. The MIC in the assay on Candida albicans [2] was 5 µg/mL (≈ 12.9 µM); in [3], 2.5 µg/mL (≈ 6.43 µM); in the assay with Aspergillus fumigatus [4] it was more than 80 µg/mL; against Candida albicans [7] it was 2.5 µg/mL (≈ 6.43 µM); in [8] it was 2.5 µg/mL (≈ 6.43 µM); against Aspergillus fumigatus [9] it was more than 80 µg/mL. In addition, the figures for the MIC (in the assay with Candida albicans [11]; in [12]; in the assay with Aspergillus fumigatus [13]) were 5.0 µg/mL (≈ 12.9 µM), 5.0 µg/mL (≈ 12.9 µM) and more than 80 µg/mL, respectively.

In the case of `[C-]#[N+]C12C3OC3C(C)(C)c3[nH]c4cccc5c4c3C1(O)C(CCC2(C)C=C)C5(C)C` (centres unmarked) [A89271 I], the “Measurement in zone units” value is on record as 390 zone units in assay [1] (16 ug per disk); 680 zone units in assay [1] (20 ug per disk); 500 zone units in [1] (80 ug per disk); 0-180 zone units in assay [5] (20 ug per disk); 100-200 zone units in assay [5] (80 ug per disk); 0-200 zone units in assay [5] (factor line, no dose given). In addition, the “Measurement in zone units” value was 250 zone units in [6]; 420 zone units in assay [10] (16 ug per disk); 490 zone units in assay [10] (80 ug per disk); 120 zone units in assay [14] (16 ug per disk); 100-180 zone units in [14] (20 ug per disk); 110 zone units in assay [15] (16 ug per disk). Also, the “Measurement in zone units” value was 100-250 zone units in assay [15] (20 ug per disk); 200-220 zone units in assay [15] (80 ug per disk); 260 zone units in assay [15] (factor line, no dose given). For the same molecule, the MIC is 2.5 µg/mL (≈ 6.21 µM) against Candida albicans [2]; 2.5 µg/mL (≈ 6.21 µM) in assay [3]; more than 80 µg/mL against Aspergillus fumigatus [4]; 1.25 µg/mL (≈ 3.11 µM) against Candida albicans [7]; 2.5 µg/mL (≈ 6.21 µM) in assay [8]; more than 80 µg/mL with Aspergillus fumigatus [9]. The MIC in the assay with Candida albicans [11] was 1.25 µg/mL (≈ 3.11 µM); in [12], 5.0 µg/mL (≈ 12.4 µM); against Aspergillus fumigatus [13], more than 80 µg/mL.
